{
  "source": "patent US8895805B2",
  "about": "“Method for modifying insect resistance of plants by utilizing RNAi technique” (Shanghai Institutes for Biological Sciences, Chinese …, priority 2006, dated 2014)",
  "system": "GST1 gene",
  "test": "GST1 gene expression in the mesenteron after artificial diet containing gossypol",
  "type": "in vivo, cotton bollworm",
  "conditions": "5-day old larvae, 1 day, artificial diet with 1 mg/g gossypol (FIG. 7A)",
  "method": "FIG. 7A show the change in GST 1 gene expression in the mesenteron of 5-day old cotton bollworm with the same growth vigor 1 day after eating artificial diet containing 1 mg/g gossypol. Lane 1 and 2 are cotton bollworm eating artificial diet with or without 1 mg/g gossypol respectively.",
  "data": [
    {"smiles": "Cc1cc2c(C(C)C)c(O)c(O)c(C=O)c2c(O)c1-c1c(C)cc2c(C(C)C)c(O)c(O)c(C=O)c2c1O", "note": "[gossypol]", "values": [
      {"measurement": "GST1 gene expression in the mesenteron", "result": "no significant effect"}
    ]}
  ]
}
